Molecules are shown by their SMILES. pIC50: −log10 of the molar value. Where two headings read alike, the source gives them in different places. Starred links: 1 amine or outer side, 2 acyl side, 3 side chain; linkers in the order of their positions; H or OH if unused. Positions of bridges follow the written chain, without caps; N, C: chain ends. Non-standard residues stand in square brackets, D forms with d. Residues, ends and D or L forms follow the SMILES beside them. *: point of attachment. X3 = O=C(O)CCCCCCCCCCCCCCCCC(=O)N[C@@H](CCC(=O)NCCCOCCOCCOCCCN*)C(=O)O; Trp(1-CH2CONHSO2Me) = CS(=O)(=O)NC(=O)Cn1cc(C[C@H](N)C(=O)O)c2ccccc21; X6 = COc1ccc2c(c1)c(C[C@H](N[*:1])C(=O)[*:2])cn2CC(=O)O; X4 = O=C(O)Cn1nc(C[C@H](N[*:1])C(=O)[*:2])c2ccccc21; Hyp = O=C(O)[C@@H]1C[C@@H](O)CN1; NMeNle = CCCC[C@H](NC)C(=O)O; NMeA = CN[C@@H](C)C(=O)O; Dab = NCC[C@H](N)C(=O)O; Dap = NC[C@H](N)C(=O)O

The target in the assay is T1, PD-1-Ig binding to PD-L1-TVMV-His (PD-L1-His) (Homo sapiens, UniProt Q9NZQ7).
T1 construct: hPDL1(19-239)-TVMV-His; TVMV protease cleavage site (C); made in house; host or cells: HEK293T cells
T1 sequence (Q9NZQ7 with tags, fused parts or gaps): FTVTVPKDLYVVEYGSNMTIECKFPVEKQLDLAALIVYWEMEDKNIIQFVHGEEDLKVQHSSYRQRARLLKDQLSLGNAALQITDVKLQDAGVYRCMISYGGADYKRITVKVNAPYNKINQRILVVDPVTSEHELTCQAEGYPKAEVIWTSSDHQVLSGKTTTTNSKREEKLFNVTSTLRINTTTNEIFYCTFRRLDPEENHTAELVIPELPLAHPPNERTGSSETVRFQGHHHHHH
Nature of the assay: PD-1/PD-L1 Homogenous Time-Resolved Fluorescence (HTRF) binding assay. Particulars: PD-1-Ig (20 nM) / PD-L1-His (10 nM), read-out: LE HTRF hPD1 hPDL1 IC50. (In general: In TR-FRET formats the signal depends on donor and acceptor labels being close together.)

A word on the pIC50: it is the negative decadic logarithm of the IC50, by convention in mol/L. Consider `CCCC[C@H]1C(=O)N(C)[C@@H](CCCC)C(=O)N[C@@H](CC(C)C)C(=O)N[C@H](C(=O)NCC(=O)N[C@@H](Cc2cn(CCOCCOCCOCCOCCOCCOCCOCCOCCOCCOCCOCCNC(=O)CC[C@H](NC(=O)CCCCCCCCCCCCCCCCC(=O)O)C(=O)O)nn2)C(=O)O)CSCC(=O)N[C@@H](Cc2ccc(O)cc2)C(=O)N(C)[C@@H](C)C(=O)N[C@@H](CC(N)=O)C(=O)N2CCC[C@H]2C(=O)N[C@@H](CN)C(=O)N[C@@H](CC(C)C)C(=O)N2C[C@H](O)C[C@H]2C(=O)N[C@@H](Cc2c[nH]c3ccccc23)C(=O)N[C@@H](CCN)C(=O)N[C@@H](Cc2nn(CC(=O)OC)c3ccccc23)C(=O)N1C` [Example 23], for which the pIC50 (range classes) is 9.00 to 9.52. Consider `CCCC[C@H]1C(=O)N(C)[C@@H](CCCC)C(=O)N[C@@H](CC(C)C)C(=O)N[C@H](C(=O)NCC(=O)N[C@@H](Cc2cn(CCOCCOCCOCCOCCOCCOCCOCCOCCOCCOCCOCCNC(=O)CC[C@H](NC(=O)CCCCCCCCCCCCCCCCC(=O)O)C(=O)O)nn2)C(=O)O)CSCC(=O)N[C@@H](Cc2ccc(O)cc2)C(=O)N(C)[C@@H](C)C(=O)N[C@@H](CC(N)=O)C(=O)N2CCC[C@H]2C(=O)N[C@@H](CN)C(=O)N[C@@H](CC(C)C)C(=O)N2C[C@H](O)C[C@H]2C(=O)N[C@@H](Cc2c[nH]c3ccccc23)C(=O)N[C@@H](CCN)C(=O)N[C@@H](Cc2cn(CC(=O)NS(C)(=O)=O)c3ccccc23)C(=O)N1C` [Example 30], for which, where the note is “range classes”, the pIC50 was 8.05 to 8.96. On the same count and under the same terms, as for `CCCC[C@H]1C(=O)N(C)[C@@H](CCCC)C(=O)N[C@@H](CC(C)C)C(=O)N[C@H](C(=O)NCC(=O)N[C@@H](CC(=O)NCCCOCCOCCOCCCNC(=O)CC[C@H](NC(=O)CCCCCCCCCCCCCCCCC(=O)O)C(=O)O)C(=O)O)CSCC(=O)N[C@@H](Cc2ccc(O)cc2)C(=O)N(C)[C@@H](C)C(=O)N[C@@H](CC(N)=O)C(=O)N2CCC[C@H]2C(=O)N[C@@H](CN)C(=O)N[C@@H](CC(C)C)C(=O)N2C[C@H](O)C[C@H]2C(=O)N[C@@H](Cc2c[nH]c3ccccc23)C(=O)N[C@@H](CCN)C(=O)N[C@@H](Cc2nn(CC(=O)O)c3ccccc23)C(=O)N1C` [Example 5] ({CH2CO}-Y[NMeA]NP[Dap]L[Hyp]W[Dab][X4][NMeNle][NMeNle]LCGD(X3)-OH; thioether N-14), the figure is 8.05 to 8.96. Take `CCCC[C@H]1C(=O)N(C)[C@@H](CCCC)C(=O)N[C@@H](CC(C)C)C(=O)N[C@H](C(=O)NCC(=O)N[C@@H](CC(=O)NCCCOCCOCCOCCCNC(=O)CC[C@H](NC(=O)CCCCCCCCCCCCCCCCC(=O)O)C(=O)O)C(=O)O)CSCC(=O)N[C@@H](Cc2ccc(O)cc2)C(=O)N(C)[C@@H](C)C(=O)N[C@@H](CC(N)=O)C(=O)N2CCC[C@H]2C(=O)N[C@@H](CN)C(=O)N[C@@H](CC(C)C)C(=O)N2C[C@H](O)C[C@H]2C(=O)N[C@@H](Cc2c[nH]c3ccccc23)C(=O)N[C@@H](CCN)C(=O)N[C@@H](Cc2cn(CC(=O)NS(C)(=O)=O)c3ccccc23)C(=O)N1C` [Example 1] ({CH2CO}-Y[NMeA]NP[Dap]L[Hyp]W[Dab][Trp(1-CH2CONHSO2Me)][NMeNle][NMeNle]LCGD(X3)-OH; thioether N-14): the pIC50 (numeric values) is 8.92. Regarding `CCCC[C@H]1C(=O)N(C)[C@@H](CCCC)C(=O)N[C@@H](CC(C)C)C(=O)N[C@H](C(=O)NCC(=O)N[C@@H](CC(=O)NCCCOCCOCCOCCCNC(=O)CC[C@H](NC(=O)CCCCCCCCCCCCCCCCC(=O)O)C(=O)O)C(=O)O)CSCC(=O)N[C@@H](Cc2ccc(O)cc2)C(=O)N(C)[C@@H](C)C(=O)N[C@@H](CC(N)=O)C(=O)N2CCC[C@H]2C(=O)N[C@@H](CN)C(=O)N[C@@H](CC(C)C)C(=O)N2C[C@H](O)C[C@H]2C(=O)N[C@@H](Cc2c[nH]c3ccccc23)C(=O)N[C@@H](CCN)C(=O)N[C@@H](Cc2cn(CC(=O)O)c3ccc(OC)cc23)C(=O)N1C` [Example 12] ({CH2CO}-Y[NMeA]NP[Dap]L[Hyp]W[Dab][X6][NMeNle][NMeNle]LCGD(X3)-OH; thioether N-14), the pIC50 (range classes) was 9.00 to 9.52.

(Values after patent US11066445B2, “Immunomodulators acting as antagonists of PD-1” (Bristol-Myers Squibb Company, priority 2017, dated 2021).)
